# Source: PMC9492542, “Brain-restricted mTOR inhibition with binary pharmacology” (Nature, 2022)
# “And” between values parts separate entries of the source, which are not always exact repeats. Equal values may be shown once.
# Legend:
# FKBP12 = biological target: T1, FKBP12 (Homo sapiens, UniProt P62942); assay: Competition fluorescence polarization assay with FITC-rapamycin tracer; assay type: binding; conditions: recombinant FKBP12, Extended Data Fig. 2; read-out: Kd (FKBP12)
# T1 construct: His-tag (HRV 3C cleavable) (cleaved yes); made in house; host or cells: Escherichia coli BL21(DE3)
# Procedure: Compound binding affinity was determined using a competition fluorescence polarization assay. […] The assay buffer was 20 mM HEPES pH 7.5 and 0.01% Triton X-100. […] Data were fitted to a three-parameter sigmoidal curve to derive IC50 values. Ki of the compounds were calculated using a tool provided by S. Wang’s laboratory (http://www.umich.edu/~shaomengwanglab/software/calc_ki/index.html). Data were plotted in GraphPad Prism 9.0.
# LRRK2 = LRRK2 (Mus musculus, UniProt Q5S006); assay: Phospho-LRRK2 (S935) quantification by TR-FRET in RAW264.7 cells; conditions: replicate raw data, 0 nM = 100
# Sequence of LRRK2 (Q5S006 whole entry): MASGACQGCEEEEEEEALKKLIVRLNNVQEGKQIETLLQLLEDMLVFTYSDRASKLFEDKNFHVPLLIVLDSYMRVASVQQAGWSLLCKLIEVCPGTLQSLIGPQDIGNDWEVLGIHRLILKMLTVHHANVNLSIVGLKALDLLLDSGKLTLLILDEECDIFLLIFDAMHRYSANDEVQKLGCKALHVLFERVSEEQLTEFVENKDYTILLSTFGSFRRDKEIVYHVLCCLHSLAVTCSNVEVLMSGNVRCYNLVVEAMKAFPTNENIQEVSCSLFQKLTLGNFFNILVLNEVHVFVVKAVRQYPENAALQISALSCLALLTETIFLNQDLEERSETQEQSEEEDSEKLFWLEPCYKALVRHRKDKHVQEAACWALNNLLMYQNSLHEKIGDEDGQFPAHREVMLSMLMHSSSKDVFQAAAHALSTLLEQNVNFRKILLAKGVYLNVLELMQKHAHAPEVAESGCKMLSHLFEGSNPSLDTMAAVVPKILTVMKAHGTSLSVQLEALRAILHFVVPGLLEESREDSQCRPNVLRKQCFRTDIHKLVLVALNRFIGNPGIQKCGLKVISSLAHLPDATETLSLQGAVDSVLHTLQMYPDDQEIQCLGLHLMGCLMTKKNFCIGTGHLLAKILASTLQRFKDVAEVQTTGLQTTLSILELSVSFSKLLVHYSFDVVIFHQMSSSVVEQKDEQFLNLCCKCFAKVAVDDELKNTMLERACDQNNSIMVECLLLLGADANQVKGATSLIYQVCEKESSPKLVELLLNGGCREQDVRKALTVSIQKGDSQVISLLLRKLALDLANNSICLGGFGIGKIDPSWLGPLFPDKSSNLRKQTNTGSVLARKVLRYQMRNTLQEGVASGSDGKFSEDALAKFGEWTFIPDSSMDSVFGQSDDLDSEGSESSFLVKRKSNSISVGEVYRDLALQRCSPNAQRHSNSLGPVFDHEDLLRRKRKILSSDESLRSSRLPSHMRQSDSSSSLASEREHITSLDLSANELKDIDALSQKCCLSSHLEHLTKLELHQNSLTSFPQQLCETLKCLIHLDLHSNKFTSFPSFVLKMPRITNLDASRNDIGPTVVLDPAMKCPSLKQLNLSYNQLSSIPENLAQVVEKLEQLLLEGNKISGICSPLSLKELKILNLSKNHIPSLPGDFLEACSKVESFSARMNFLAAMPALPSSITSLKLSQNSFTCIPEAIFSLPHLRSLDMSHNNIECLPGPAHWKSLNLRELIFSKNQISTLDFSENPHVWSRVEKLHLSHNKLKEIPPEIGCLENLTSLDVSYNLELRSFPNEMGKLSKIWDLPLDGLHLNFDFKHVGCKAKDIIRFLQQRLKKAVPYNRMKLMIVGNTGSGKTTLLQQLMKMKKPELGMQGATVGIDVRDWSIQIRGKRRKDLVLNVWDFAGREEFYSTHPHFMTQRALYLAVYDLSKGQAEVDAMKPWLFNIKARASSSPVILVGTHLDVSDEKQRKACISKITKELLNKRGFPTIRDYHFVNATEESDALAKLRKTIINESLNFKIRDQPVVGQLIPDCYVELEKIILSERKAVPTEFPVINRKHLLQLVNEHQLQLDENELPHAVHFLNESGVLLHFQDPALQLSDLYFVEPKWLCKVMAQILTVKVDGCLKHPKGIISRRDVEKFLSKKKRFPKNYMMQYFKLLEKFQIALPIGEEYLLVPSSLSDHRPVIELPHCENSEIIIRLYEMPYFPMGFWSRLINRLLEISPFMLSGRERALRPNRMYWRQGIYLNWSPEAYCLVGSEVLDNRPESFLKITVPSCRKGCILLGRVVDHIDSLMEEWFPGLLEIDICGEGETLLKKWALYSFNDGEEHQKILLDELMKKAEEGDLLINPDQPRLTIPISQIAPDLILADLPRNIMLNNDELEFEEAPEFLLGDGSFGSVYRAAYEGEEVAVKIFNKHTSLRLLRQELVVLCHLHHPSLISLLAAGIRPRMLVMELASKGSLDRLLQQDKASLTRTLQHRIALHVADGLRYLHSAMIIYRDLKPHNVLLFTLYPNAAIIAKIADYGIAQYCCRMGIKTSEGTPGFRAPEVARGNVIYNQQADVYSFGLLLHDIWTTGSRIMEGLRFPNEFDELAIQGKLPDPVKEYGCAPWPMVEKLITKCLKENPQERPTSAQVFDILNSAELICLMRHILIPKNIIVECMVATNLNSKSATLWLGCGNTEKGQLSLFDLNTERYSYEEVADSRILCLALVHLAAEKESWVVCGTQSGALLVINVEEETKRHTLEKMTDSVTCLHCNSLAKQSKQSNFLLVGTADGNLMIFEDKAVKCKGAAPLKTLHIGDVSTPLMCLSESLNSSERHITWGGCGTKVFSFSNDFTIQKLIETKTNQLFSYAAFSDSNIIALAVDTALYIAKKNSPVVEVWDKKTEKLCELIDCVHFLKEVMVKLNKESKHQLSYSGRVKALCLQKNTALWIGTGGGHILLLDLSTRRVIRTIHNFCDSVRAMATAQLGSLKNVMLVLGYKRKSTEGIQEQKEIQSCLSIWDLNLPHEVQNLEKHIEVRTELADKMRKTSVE
# Procedure: Phospho-LRRK2 (S935) was quantified in drug-treated cells using a Phospho-LRRK2 (Ser935) cellular kit (Cisbio) following the manufacturer’s instructions. […] Cells were treated with compounds at the indicated concentrations for 2 h. Medium was removed by aspiration and the cells were rinsed with ice-cold PBS (1 ml). Cells were lysed with 100 µl Cisbio 1X lysis buffer at 23 °C directly in plate for 30 min. […] Clarified lysate (16 µl) was dispensed into one well of a low-volume, round-bottom 384-well plate, and 4 µl LRRK2–phospho-LRRK2 (S935) antibody master mix (Cisbio) was added to each well. The plate was incubated at 23 °C for 4 h.
# The TR-FRET signal was calculated as the ratio fluorescence intensity [read B]/[read A].
# T1 sequence (P62942 whole entry): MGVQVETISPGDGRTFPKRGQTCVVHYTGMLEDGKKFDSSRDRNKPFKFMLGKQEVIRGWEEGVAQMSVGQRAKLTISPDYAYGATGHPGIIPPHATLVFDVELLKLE
SMILES,Kd (FKBP12) [nM],P-LRRK2(S935) in RAW264.7 cells (LRRK2; Conc 0.457247 nM),P-LRRK2(S935) in RAW264.7 cells (LRRK2; Conc 1.37174 nM),P-LRRK2(S935) in RAW264.7 cells (LRRK2; Conc 4.11523 nM),P-LRRK2(S935) in RAW264.7 cells (LRRK2; Conc 12.3457 nM),P-LRRK2(S935) in RAW264.7 cells (LRRK2; Conc 37.037 nM),P-LRRK2(S935) in RAW264.7 cells (LRRK2; Conc 111.111 nM),P-LRRK2(S935) in RAW264.7 cells (LRRK2; Conc 333.333 nM),P-LRRK2(S935) in RAW264.7 cells (LRRK2; Conc 1000 nM)
CO[C@H]1C[C@@H](C)C/C(C)=C/[C@@H](CCCSCCN)C(=O)C[C@H](O)[C@@H](C)[C@@H](/C(C)=C/[C@@H]2CC[C@@H](O)[C@H](OC)C2)OC(=O)[C@@H]2CCCCN2C(=O)C(=O)[C@]2(O)O[C@H]1[C@@H](OC)C[C@H]2C [Compound 05-011],0.7,–,–,–,–,–,–,–,–
CCNc1nc(Nc2cc(F)c(C(=O)N3CCOCC3)cc2OC)ncc1C(F)(F)F [GNE-7915],–,93.9 and 94 and 94.8,113.4 and 112.1 and 104.8,116.1 and 116.6 and 114.3,104.6 and 91.1 and 91.3,75.2 and 70.5 and 70.4,43.3 and 40.8 and 41,26.6 and 22.6 and 23.5,17.7 and 14.2 and 15.7
CCC(C)(C)C(=O)C(=O)N1CCCC[C@H]1C(=O)O[C@H](CCc1ccc(OC)c(OC)c1)c1cccc(N(CC(=O)O)CC(=O)O)c1 [Compound 01-060B],75,–,–,–,–,–,–,–,–
